Publication PMC4193996 (Journal of Experimental & Clinical Cancer Research : CR, 2014)

Columns and labels:
[1] = system: h-Tel quadruplex DNA, 5'-biotin-d[AG3(T2AG3)3] (DNA, G4) AGGGTTAGGGTTAGGGTTAGGG; assay: SPR
[2] = system: hairpin duplex, 5'-biotin-CGA3T3C(CT)2GA3T3CG (DNA, hairpin) CGAAATTTCCTCTGAAATTTCG; assay: SPR
[3] = target: human recombinant β2 adrenergic receptor (Homo sapiens, UniProt P07550); assay: β2 adrenergic receptor inhibition assay; format: binding; conditions: read-out: β2 adrenergic % inh @1 μM
Protocol: (§1) hEGR study and the M2 and the β2 receptor inhibition assay were performed as previously reported.
(§2) The new G-quadruplex ligands were designed in an attempt to obtain molecules with improved toxicological and on-target profiles, but maintaining the same favorable chemical and pharmacological features of the lead compound 1. With the aim of selecting the best variants, a step by step comparative analysis of their off- and on-target properties was performed. Initially the new molecules were tested for their ability to interact with and inhibit the human recombinant β2 adrenergic and M2 muscarinic receptors, and to reduce the hERG tail current in a patch clamp assay. […] Therefore, we might expect that the new ligands would impair cardiac functionality to a lesser extent than the lead molecule does.

[4] = target: hERG (Homo sapiens, UniProt Q12809); assay: hERG tail current inhibition in a patch clamp assay; format: cell-based; conditions: read-out: hERG % inh @10 μM
Protocol: as §1, §2

[5] = system: BJ-EHLT fibroblasts; assay: γ-H2AX/PCNA co-immunostaining (replication-dependent DNA damage); format: cell-based, human; conditions: 24 hrs
Protocol: Cells were fixed in 2% formaldehyde and permeabilized in 0.25% Triton X100 in PBS for 5 min at room temperature. For immunolabeling, cells were incubated with primary antibody, then washed in PBS and incubated with the secondary antibodies. The following primary antibodies were used: pAb and mAb anti-TRF1(Abcam Ltd.; Cambridge UK); mAb (Upstate, Lake Placid, NY) and pAb anti-γH2AX (Abcam); mAb anti-PCNA (Sigma Chemicals, Milano, Italy). The following secondary antibody were used: TRITC conjugated Goat anti Rabbit, FITC conjugated Goat anti Mouse (Jackson ImmunoResearch Europe Ltd., Suffolk, UK). Fluorescence signals were recorded by using a Leica DMIRE2 microscope equipped with a Leica DFC 350FX camera and elaborated by a Leica FW4000 deconvolution software (Leica, Solms, Germany). This system permits to focus single planes inside the cell generating 3D highresolution images. For quantitative analysis of γH2AX positivity, 200 cells on triplicate slices were scored. For TIFs analysis, in each nucleus a single plane was analyzed and at least 50 nuclei per sample were scored.
Figure 2 DNA damage activation at telomeres. BJ-EHLT fibroblasts were treated for 24 hrs with compound 1 and the indicated ligands at the doses 0.1 (light-grey bars) and 0.5 μM (dark-grey bars). […] Cells with four or more γ-H2AX/TRF1 foci were scored as TIF positive. […]

[6] = system: HT29 cells; assay: Colony forming ability, single agent or combined with SN-38; format: cell-based, human
Protocol: The HT29 cells were seeded in 60 mm- Petri dishes at a density of 5x10^4 cells/ plate in DMEM medium plus 10% serum FCS. After 24 hours cells were exposed to the following drugs: Ethyl-10-hydroxy-camptothecin (SN-38; 0.2, 0.4, 0.8 μM for 2 hrs), compound 8 (at 0.1, 0.2 and 0.4 μM for 96 hours) and compound 1 (0.5 and 1 μM for 96 hours). In the combination experiments the two different sequence of drug administration were evaluated: campthotecin followed by G-quadruplex ligands and the inverse sequence at fixed equipotent ratios. The medium containing the first drug was removed and replaced with fresh medium containing the second drug. Colony forming ability was evaluated as previously reported.
Synergism, additivity, and antagonism were assessed by isobologram analysis as reported previously. Combination index (CI) values <0.9, > 0.9 < 1.2, and >1.2 indicate synergism, additivity, and antagonism, respectively. The Student’s t-test (unpaired, two-tailed) was used for comparing statistical differences. Differences were considered statistically significant when P < 0.05.
We have previously reported that compound 1 in combination therapy with topoisomerase (TOPO) I inhibitors (Camptothecins) produced a synergistic antitumoral activitiy in in vitro and in vivo models. […] The study of in vitro interaction between agent 8 and ethyl-10-hydroxy-camptothecin (SN-38), the active metabolite of camptothecin Irinotecan, was preceded by experiments in which the cell colony-forming ability of the human colorectal adenocarcinoma HT29 cells was evaluated at different doses of compound 1 or 8. […]
Figure 3 Anti-tumor efficacy of compound 8 in single or combined administration with the topoisomerase I inhibitor SN-38. […] Surviving fractions were calculated as the ratio of absolute survival of the treated sample/absolute survival of the untreated sample. […] In the histograms the surviving fractions calculated as in (A) are reported. […] (C) Combination Index for SN-38 and 8 was calculated by the Chou–Talalay method. […]

Chain of human recombinant β2 adrenergic receptor (P07550 whole entry): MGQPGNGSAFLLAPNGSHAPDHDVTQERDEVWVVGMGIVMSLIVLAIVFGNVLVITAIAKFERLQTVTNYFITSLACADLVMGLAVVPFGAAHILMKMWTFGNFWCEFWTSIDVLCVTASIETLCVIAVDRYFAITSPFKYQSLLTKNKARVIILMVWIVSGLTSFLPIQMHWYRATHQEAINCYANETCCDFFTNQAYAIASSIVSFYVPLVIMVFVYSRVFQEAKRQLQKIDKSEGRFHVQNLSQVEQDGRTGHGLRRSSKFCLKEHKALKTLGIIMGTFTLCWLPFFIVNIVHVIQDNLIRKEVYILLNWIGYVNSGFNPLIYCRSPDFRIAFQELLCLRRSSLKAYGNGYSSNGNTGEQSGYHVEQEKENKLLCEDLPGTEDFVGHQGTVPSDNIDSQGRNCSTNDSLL
Chain of hERG (Q12809 whole entry): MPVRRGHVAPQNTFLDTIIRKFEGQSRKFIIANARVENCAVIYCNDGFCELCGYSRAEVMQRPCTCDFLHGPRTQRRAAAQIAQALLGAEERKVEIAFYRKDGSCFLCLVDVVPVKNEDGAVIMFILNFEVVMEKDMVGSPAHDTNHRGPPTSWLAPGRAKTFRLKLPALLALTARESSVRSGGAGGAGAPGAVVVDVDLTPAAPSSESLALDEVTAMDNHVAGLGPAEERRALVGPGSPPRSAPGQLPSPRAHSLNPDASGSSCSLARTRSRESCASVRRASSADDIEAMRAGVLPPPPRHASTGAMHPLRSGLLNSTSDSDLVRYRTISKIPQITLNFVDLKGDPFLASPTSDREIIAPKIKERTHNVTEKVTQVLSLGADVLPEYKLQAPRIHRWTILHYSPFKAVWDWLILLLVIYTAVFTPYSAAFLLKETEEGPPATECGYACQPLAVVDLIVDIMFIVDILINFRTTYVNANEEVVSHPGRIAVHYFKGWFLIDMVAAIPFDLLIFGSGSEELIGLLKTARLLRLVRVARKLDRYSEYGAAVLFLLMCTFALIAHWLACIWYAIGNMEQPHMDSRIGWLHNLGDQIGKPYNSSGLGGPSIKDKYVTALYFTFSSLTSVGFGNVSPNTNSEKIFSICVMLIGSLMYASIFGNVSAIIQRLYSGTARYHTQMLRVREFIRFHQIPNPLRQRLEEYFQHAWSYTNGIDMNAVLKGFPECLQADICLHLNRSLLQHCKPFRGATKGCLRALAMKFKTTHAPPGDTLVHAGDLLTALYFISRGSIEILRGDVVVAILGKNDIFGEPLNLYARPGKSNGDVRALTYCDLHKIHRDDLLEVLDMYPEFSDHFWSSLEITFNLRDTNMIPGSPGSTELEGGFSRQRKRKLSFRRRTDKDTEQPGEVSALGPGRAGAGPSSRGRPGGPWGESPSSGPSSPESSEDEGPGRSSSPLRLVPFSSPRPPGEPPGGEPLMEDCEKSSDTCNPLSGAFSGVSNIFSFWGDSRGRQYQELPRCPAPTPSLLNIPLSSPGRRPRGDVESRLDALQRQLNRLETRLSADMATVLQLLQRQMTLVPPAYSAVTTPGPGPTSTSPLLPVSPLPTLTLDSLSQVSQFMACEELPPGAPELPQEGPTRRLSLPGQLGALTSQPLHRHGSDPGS

CC(=O)NCC#Cc1ccc2c3cccc4c3c([n+](C)c2c1)-c1ccccc1N4C [Compound 8]
K [1]: 1.42e+07 M⁻¹
K [2]: 900000 M⁻¹
inhibition at 1 µM [3]: 2%
inhibition at 10 µM [4]: 40%
γ-H2AX foci formation relative to PCNA status [5]: almost exclusively restricted to PCNA-positive
cell survival (colony-forming ability), single agent ([6]; HT29, 96 hours, 0.1 to 0.8 μM): inhibited cell survival in a dose-dependent manner like compound 1 but more efficiently so
Interaction with SN-38, inverse sequence ([6]; HT29, G4-ligand followed by SN-38): additive or slight synergistic interaction
Combination Index (CI) with SN-38 ([6]; HT29, SN-38 (2 hrs) followed by the G4-ligand (96 hours)): < 0.5
